Experimental data published in US6482771B2, “Synergistic herbicidal methods and compositions” (BASF Aktiengesellschaft, priority 2000, dated 2002).

Tests used:
Bromus diandrus = test: Field plot evaluation of density reduction in Bromus diandrus (great bromegrass); format: in vivo; conditions: 28 g/ha, weed count vs untreated plot
Method: (§1) In the following examples, synergism is determined by the Colby (Colby, S. R., Weeds, 1967(15), p. 20-22) method, i.e. the expected (or predicted) response of the combination is calculated by taking the product of the observed response for each individual component of the combination when applied alone divided by 100 and subtracting this value from the sum of the observed response for each component when applied alone. Synergism of the combination is then determined by comparing the observed response of the combination to the expected (or predicted) response as calculated from the observed responses of each individual component alone. If the observed response of the combination is greater than the expected (or predicted) response then the combination is said to be synergistic.
All trials employ standard accepted weed science procedures. Applications are made to 2×10M plots with a propane gas-powered small plot boomspray applicator. Test design is a modified randomized complete block design with four replications. Applications are made at 2-6 weeks after the imidazolinone-tolerant crop is sown. […]
Using essentially the same procedure and test solutions described in Example 1, the following evaluation is carried out. In this evaluation, density reduction is measured by counting the Bromus diandrus weeds in the treated plots and comparing the count to that of the untreated plot. […]

Hordeum leporinum = test: Field plot evaluation of biomass reduction and seedhead suppression in Hordeum leporinum (wild barley), post-emergence in an imidazolinone-tolerant crop; format: in vivo; conditions: 28 g/ha; for Seed Head Red. Observed: seedhead count vs untreated plot; for Bio. Red. Observed: visual rating vs untreated plots, average of 4 replicates
Method: as §1
All trials employ standard accepted weed science procedures. Applications are made to 2×10M plots with a propane gas-powered small plot boomspray applicator. Test design is a modified randomized complete block design with four replications. Applications are made at 2-6 weeks after the imidazolinone-tolerant crop is sown.
In this evaluation biomass reduction is determined by visually rating the numbers and bulk of Hordeum leporinum in the treatment plots as compared to the numbers and bulk in the untreated plots. Seedhead suppression is measured by counting the seedheads of Hordeum leporinum in each of the treated plots and comparing to the number of seedheads in the untreated plot.
The test solutions are prepared by tank-mixing commercial formulations. All treatments also contain 0.5% v/v of an ethoxylated vegetable oil.
The treated plots are examined at intervals during the growing season and rated for percent biomass reduction and percent seedhead suppression. The data shown are an average of the replicates for that treatment. The Colby method of analysis is used to determine the resultant biological effect of the combination treatment as compared to the biological effect of each component when applied alone.

Row | Compound | Density Red. Obs. (Bromus diandrus) [%] | Seed Head Red. Observed (Hordeum leporinum) [%] | Bio. Red. Observed (Hordeum leporinum) [%]
1 | COCc1cnc(C2=NC(C)(C(C)C)C(=O)N2)c(C(=O)O)c1 (stereo not drawn) [imazamox, 2-(4-isopropyl-4-methyl-5-oxo-2-imidazolin-2-yl)-5-(methoxymethyl)-nicotinic acid] | 98.96 | 76.33 | 80
2 | Cc1cnc(C2=NC(C)(C(C)C)C(=O)N2)c(C(=O)O)c1 (stereo not drawn) [imazapic, 2-(4-isopropyl-4-methyl-5-oxo-2-imidazolin-2-yl)-5-methylnicotinic acid] | −17.29 | 5.55 | 30
